Reference: PMC9699072 (Molecules, 2022)
Where “and” joins values, the source holds several entries; their conditions need not be identical. Equal values may be shown once.

Columns and labels:
Assay type in all cases: biochemical
[1] = ABTS radical cation scavenging (decolorization) assay; details: mean ± SEM, n = 3; for ABTS TEAC (Trolox equivalent antioxidant capacity): 1 h incubation, relative to Trolox; for IC50: 1 h, read-out: ABTS IC50 (compound concentration required for 50% reduction of the ABTS radical-cation) (converted)
Procedure: The ABTS assay is based on the direct quenching of the ABTS cation radical (ABTS^•+) by antioxidants. The assay is carried out by spectrophotometric determination of a decrease in absorbance of a stable dark green ABTS^•+ solution after its interaction with an antioxidant compound [56]. The measurements were performed as previously described in detail. The results are expressed as TEAC values (Trolox equivalent antioxidant capacity) and IC50 values (compound concentration required for 50% reduction of the ABTS radical).
Radical scavenging activity of the compounds was assessed using the ABTS radical cation (ABTS^•+) decolorization assay with some modifications. ABTS (2,2′-azinobis-(3-ethylbenzothiazoline-6-sulfonic acid)) was purchased from Tokyo Chemical Industry Co., Ltd. (Tokyo, Japan), and potassium persulfate (dipotassium peroxodisulfate), Trolox (6-hydroxy-2,5,7,8-tetramethylchroman-2-carboxylic acid), and HPLC-grade ethanol and DMSO were obtained from Sigma-Aldrich (Saint Louis, MO, USA). Aqueous solutions were prepared using deionized water. All test compounds were dissolved in DMSO.
The solution of cation radical ABTS^•+ was produced by incubation of an aqueous solution of 7 mM ABTS and 2.45 mM potassium persulfate solution in equal quantities for 12–16 h at room temperature in the dark. Radical scavenging capacity of the compounds was analyzed by mixing 10 μL of compound with 240 μL of ABTS^•+ working solution in ethanol (100 μM final concentration). Data were given for 1 h of incubation of compounds with ABTS^•+. The reduction in absorbance was measured spectrophotometrically at 734 nm using an xMark microplate UV/VIS microplate spectrophotometer (Bio-Rad, Hercules, CA, USA).
Ethanol blanks were run in each assay. Values were obtained from three replicates of each sample and three independent experiments.
Standard antioxidant Trolox was used as a reference compound. Antioxidant capacity as Trolox equivalent (TEAC) values was determined as the ratio between the slopes obtained from the linear correlation of the ABTS radical absorbance with the concentrations of tested compounds and Trolox. Quercetin was used as a positive control. For the test compounds that reduced ABTS^•+ absorbance by more than 60% at 100 µM, we also determined the IC50 values (the compound concentration required for a 50% reduction of the ABTS radical). The compounds were tested in the concentration range of 0.5–400 µM.

[2] = ORAC-FL (oxygen radical absorbance capacity) assay; details: mean ± SEM, n = 3; 2 h; 10 μM compound and Trolox
Excerpt: In the oxygen radical absorbance capacity (ORAC-FL) assay, 2,2′-azobis-(2-methylpropionamidine) dihydrochloride (AAPH) is used as a free peroxyl radical generator, and fluorescein (FL) is used as a fluorescent probe. The method is based on measuring the decrease in the intensity of fluorescence with time, which characterizes the degree of decay of the fluorescent probe under the influence of peroxyl radicals. In the presence of antioxidants, the degree of decay of the fluorescent probe decreases and, accordingly, the fluorescence intensity increases. The results are expressed as TE (Trolox equivalents).
The ORAC assay utilizes a biologically relevant radical source, 2,2′-azobis(2-amidinopropane) dihydrochloride (AAPH)-derived peroxyl radicals. Thus, it is a more physiologically relevant assay than ABTS and FRAP.
The oxygen radical absorbance capacity (ORAC) was determined by the ability of compounds to protect fluorescein (FL) from peroxyl radicals that are generated by AAPH according to the known method with minor variations. The reaction was carried out at 37 °C in black 96-well plates (SPL life sciences), and the final volume of the reaction mixture was 200 µL per well. The fluorescence was recorded by Tecan M1000 PRO microplate reader (Switzerland) at 485 nm excitation and 520 nm emission.
The 0.7 mM fluorescein sodium salt stock solution in PBS pH 7.4 (137 mM sodium chloride, 2.7 mM potassium chloride, and 10 mM phosphate buffer) was prepared and stored at 4–5 °C no longer than one month. An aliquot of the fluorescein stock solution was further diluted with PBS immediately before each assay to yield a 70 nM working solution. The 133 mM AAPH solution in PBS was prepared immediately before use. The test compounds and Trolox standard were dissolved in DMSO to 400 μM. The final concentration was 10 μM for all of the samples.
The blank was composed of 15 μL PBS pH 7.4, 5 μL DMSO (final concentration: 2.5% (v/v)), 120 μL FL, and 60 μL AAPH, and it was included in each assay. PBS pH 7.4 (15 μL), antioxidant (the test compound or Trolox, 5 μL), and FL (120 μL, final concentration: 42 nM) solutions were placed in a black 96-well microplate and were pre-incubated for 15 min at 37 °C. AAPH solution (60 μL, final concentration 40 mM) was then added rapidly using a multichannel pipette. The fluorescence was recorded every minute for 2 h. A Trolox standard curve was also obtained in each assay. All reactions were carried out in quadruplicate, and two to four independent assays were performed for each sample.
Antioxidant curves (fluorescence vs. time) were first normalized to the curve of the blank (without antioxidant) corresponding to the same assay, and the net AUC corresponding to a sample was calculated by subtracting the AUC corresponding to the blank. The ORAC value was obtained by dividing the latter curve by the Trolox curve obtained in the same assay at 10 μM concentrations of compounds and Trolox. Final ORAC values, Trolox equivalents (TE), were expressed as μmol test compounds per μmol Trolox, where the value of TE for Trolox was taken as 1. Data were expressed as means ± SEM.

porcine liver CES = experiment: Inhibition of CES (4-nitrophenol acetate hydrolysis); details: 20 μM, ± SEM, n = 3, 10 min incubation 25 °C
Excerpt: (§1) Given the available literature data on the ability of pyrazole derivatives to inhibit acetylcholinesterase (AChE) and human carboxylesterase-1 (CES), we performed an investigation of the esterase profile for new compounds 1a–j and 4a–j, including an evaluation of their inhibitory effect on the standard enzymes set: human erythrocyte AChE, equine serum butyrylcholinesterase (BChE), and porcine liver CES (Table 2). The applicability of this set of enzymes was shown by us earlier.
(§2) Human erythrocyte acetylcholinesterase (AChE, EC 3.1.1.7), equine serum butyrylcholinesterase (BChE, EC 3.1.1.8), porcine liver carboxylesterase (CES, EC 3.1.1.1), acetylthiocholine iodide (ATCh), butyrylthiocholine iodide (BTCh), 4-nitrophenol acetate (4-NPA), and 5,5′-dithio-bis-(2-nitrobenzoic acid) (DTNB) were purchased from Sigma-Aldrich (Saint Louis, MO, USA).
(§3) All the kinetic experiments were performed under standard conditions, according to the protocol of IPAC RAS for a reversible inhibitors study.
(§4) Ellman’s colorimetric assay was used to measure AChE and BChE activity in 0.1 M K/Na phosphate buffer at pH 7.5, 25 °C [86]. Final concentrations of reactants were 0.33 mM DTNB, 0.02 unit/mL of AChE or BChE, and 1 mM of substrate (ATCh or BTCh, respectively). Reagent blanks consisted of reaction mixtures without enzyme to assess non-enzymatic hydrolysis of substrates. Porcine liver CES activity was assessed colorimetrically in 0.1 M K/Na phosphate buffer with pH 8.0 at 25 °C, by measuring the absorbance of 4-nitrophenol at 405 nm. Final enzyme and substrate (4-NPA) concentrations were 0.02 unit/mL and 1 mM, respectively. Reagent blanks included all constituents except enzyme.
(§5) Test compounds were dissolved in DMSO. Reaction mixtures contained a final DMSO concentration of 2% (v/v). Enzyme inhibition was first assessed at a single concentration of 20 µM for each compound after a 10 min incubation at 25 °C in three separate experiments. Compounds inhibiting the enzyme by more than 30% were then selected for determination of the IC50 (inhibitor concentration resulting in 50% inhibition of control enzyme activity). […] Substrate was then added, and residual enzyme activity relative to an inhibitor-free control was measured using a FLUOStar Optima microplate reader (LabTech, Ortenberg, Germany).

human erythrocyte AChE = molecular target: T1, human erythrocyte AChE (Homo sapiens, UniProt P22303); experiment: Inhibition of AChE (Ellman's colorimetric assay); details: read-out: AChE % inhibition at 20 μM
T1 construct: Human erythrocyte acetylcholinesterase (AChE, EC 3.1.1.7); purchased Sigma-Aldrich (Saint Louis, MO, USA); host or cells: human erythrocytes
Excerpt: as §1, §2, §3, §4, §5

[3] = FRAP (ferric reducing antioxidant power) assay; details: mean ± SEM, n = 3; 1 h, 37 °C, pH 3.6
Procedure: The FRAP (ferric reducing antioxidant power) assay measures the ability of antioxidants to reduce the ferric 2,4,6-tripyridyl-s-triazine complex [Fe(TPTZ)2]^3+ to the intensely blue ferrous complex [Fe(TPTZ)2]^2+ in an acidic medium. The measurements were performed as previously described in detail. The results are expressed as TE (Trolox equivalents).
The FRAP (ferric reducing antioxidant power) assay measures the ability of antioxidants to reduce the ferric 2,4,6-tripyridyl-s-triazine complex [Fe (TPTZ)2]^3+ to the intensely blue ferrous complex [Fe (TPTZ)2]^2+ (λ = 593 nm) in acidic medium. 2,4,6-Tris(pyridin-2-yl)-1,3,5-triazine (TPTZ), FeCl3·6H2O, Trolox, quercetin and DMSO were obtained from Sigma-Aldrich Chemical Co. (St. Louis, MO, USA). The FRAP reagent contained 2.5 mL of 10 mM TPTZ solution in 40 mM HCl, 2.5 mL of 20 mM FeCl3·6H2O water solution, and 25 mL of 0.3 M acetate buffer (pH 3.6). Aliquots of 10 µL of the test compound solution in DMSO (0.5 mM) were mixed with 240 µL of FRAP reagent, and the absorbance of the mixture was measured spectrophotometrically (FLUOStar OPTIMA microplate spectrophotometer (BMG Labtech, Ortenberg, Germany)) at 600 nm after 1 h incubation at 37 °C against a blank. Trolox was used as a reference compound. Quercetin was used as a positive control. A calibration curve with linear formula y = 0.03x (R^2 = 0.998, p < 0.0001) was prepared for Trolox solutions in DMSO at a range of 2.5–100 µM, and the results are expressed as Trolox equivalents (TE), the values calculated as the ratio of the concentrations of Trolox and the test compound, resulting in the same effect.

[4] = molecular target: T2, equine serum butyrylcholinesterase (BChE) (Equus caballus, UniProt P81908); experiment: Inhibition of BChE (Ellman's colorimetric assay); details: ± SEM, n = 3, 10 min incubation 25 °C
T2 construct: equine serum butyrylcholinesterase (BChE, EC 3.1.1.8); purchased Sigma-Aldrich (Saint Louis, MO, USA); host or cells: equine serum
Excerpt: as §1, §2, §3, §4, §5

[5] = ORAC-FL (oxygen radical absorbance capacity) assay; details: mean ± SEM, n = 3; 2 h; read-out: ORAC-FL IC50 (compound concentration required for 50% reduction of peroxyl radical) (converted)

T2 sequence (P81908 whole entry): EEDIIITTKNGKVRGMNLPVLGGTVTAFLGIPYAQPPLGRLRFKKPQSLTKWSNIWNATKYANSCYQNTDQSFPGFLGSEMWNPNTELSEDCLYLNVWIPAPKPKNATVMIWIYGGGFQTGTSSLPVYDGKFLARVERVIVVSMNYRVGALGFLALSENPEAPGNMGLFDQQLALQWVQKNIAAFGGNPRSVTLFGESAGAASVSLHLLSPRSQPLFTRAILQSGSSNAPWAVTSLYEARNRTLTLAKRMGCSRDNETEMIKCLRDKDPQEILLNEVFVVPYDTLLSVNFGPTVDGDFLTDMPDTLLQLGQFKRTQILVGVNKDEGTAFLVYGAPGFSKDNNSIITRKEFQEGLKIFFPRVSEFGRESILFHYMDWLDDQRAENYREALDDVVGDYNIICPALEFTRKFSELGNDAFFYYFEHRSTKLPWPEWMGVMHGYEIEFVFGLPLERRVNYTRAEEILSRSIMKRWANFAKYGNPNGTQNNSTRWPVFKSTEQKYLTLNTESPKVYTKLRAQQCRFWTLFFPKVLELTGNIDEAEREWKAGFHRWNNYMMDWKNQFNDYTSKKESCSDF
T1 sequence (P22303 32-617 isoform P22303-2 limits assumed): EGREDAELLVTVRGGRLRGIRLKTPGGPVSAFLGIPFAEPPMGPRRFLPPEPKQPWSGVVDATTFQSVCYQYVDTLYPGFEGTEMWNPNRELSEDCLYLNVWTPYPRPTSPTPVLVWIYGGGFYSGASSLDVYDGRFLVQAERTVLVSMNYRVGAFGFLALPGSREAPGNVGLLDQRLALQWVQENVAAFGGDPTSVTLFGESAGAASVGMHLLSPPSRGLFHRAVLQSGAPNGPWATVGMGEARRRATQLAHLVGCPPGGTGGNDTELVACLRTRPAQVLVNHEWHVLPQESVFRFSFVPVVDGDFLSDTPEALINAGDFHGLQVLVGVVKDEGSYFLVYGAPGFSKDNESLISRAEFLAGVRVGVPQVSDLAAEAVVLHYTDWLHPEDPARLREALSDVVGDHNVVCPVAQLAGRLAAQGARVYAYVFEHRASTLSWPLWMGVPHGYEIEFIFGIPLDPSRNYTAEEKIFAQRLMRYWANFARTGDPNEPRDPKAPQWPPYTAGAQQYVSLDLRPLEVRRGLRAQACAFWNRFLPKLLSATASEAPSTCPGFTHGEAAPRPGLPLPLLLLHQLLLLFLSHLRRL

Row | SMILES | ABTS TEAC (Trolox equivalent antioxidant capacity) [1] | ORAC-FL TE (Trolox equivalent) [2] | CES % inhibition at 20 μM (porcine liver CES) | inhibition at 20 µM (human erythrocyte AChE) | FRAP TE (Trolox equivalent) [3] | inhibition at 20 µM [4] | IC50 [5] | IC50 [1]
1 | O=C1NN=C(C(F)(F)C(F)(F)C(F)(F)C(F)(F)F)/C1=N/O [1i] | 0.2 ± 0.01 (n.d.) TEAC | 2.41 ± 0.08 TE |  |  |  |  |  | 
2 | O=C1/C(=N\O)C(C(F)(F)F)=NN1c1ccccc1 [1a] | 0.035 ± 0.002 (n.d.) TEAC |  |  |  |  |  |  | 
3 | O=C1NN=C(C(F)(F)C(F)(F)C(F)(F)F)/C1=N/O [1h] | 0.19 ± 0.008 (n.d.) TEAC | 2.37 ± 0.09 TE | 6.6 ± 1.4% | 5.3 ± 1.3% |  |  |  | 
4 | O=C1/C(=N\O)C(C(F)(F)C(F)(F)F)=NN1c1ccccc1 [1b] | 0.03 ± 0.002 (n.d.) TEAC |  | 8.2 ± 1.3% | 11.9 ± 0.9% | 0.06 ± 0.01 TE | 16.1 ± 1.4% |  | 
5 | CC1=NN(c2ccccc2)C(=O)/C1=N\O [1d] | 0.16 ± 0.02 (n.d.) TEAC | 1.07 TE and 1.07 ± 0.17 TE |  | 4.9 ± 1.3% |  | 6.6 ± 1.3% |  | 
6 | Cc1c(C)c2c(c(C)c1O)CCC(C)(C(=O)O)O2 (stereo not drawn) [Trolox, 6-hydroxy-2,5,7,8-tetramethylchroman-2-carboxylic acid, reference compound] | 1.0 TEAC | 1.0 TE |  |  | 1.0 TE |  | 23.6 µM | 20.1 µM
7 | Cl.Nc1c(C(F)(F)C(F)F)n[nH]c1O.O [4f, 4-Amino-3-(1,1,2,2-tetrafluoroethyl)-1H-pyrazol-5-ol hydrate hydrochloride] | 0.50 ± 0.02 TEAC |  | 17.5 ± 1.4% | 17.3 ± 1.5% | 0.62 ± 0.01 TE |  |  | 33.2 µM
8 | O=c1c(O)c(-c2ccc(O)c(O)c2)oc2cc(O)cc(O)c12 [Quercetin, reference compound] | 1.20 ± 0.11 TEAC | 5.41 ± 0.08 TE |  |  | 4.99 ± 0.02 TE |  |  | 13.8 µM
9 | O=C1/C(=N\O)C(C(F)(F)C(F)(F)C(F)(F)C(F)(F)F)=NN1c1ccccc1 [1c] | 0.04 ± 0.004 (n.d.) TEAC |  | 7.8 ± 1.4% | 11.5 ± 1.8% | 0.06 ± 0.01 TE | 5.3 ± 1% |  | 
10 | O=C1NN=C(C(F)(F)C(F)F)/C1=N/O [1f] | 0.15 ± 0.007 (n.d.) TEAC |  | 3.5 ± 0.9% | 6.8 ± 1.2% |  | 4.7 ± 1% |  | 
